Species: Rattus norvegicus
Experiment: In vitro metabolism of radiolabeled compound at 10 uM was performed in rat microsomal protein containing a NADPH-regenerating system for 1 hr at 37 degree C
Assay type: functional

| SMILES | Covalent binding | Covalent binding (tested as the 3H-labelled form) |
| --- | --- | --- |
| Cc1cncc(C)c1CC(c1ccc(C(O)(C(F)(F)F)C(F)(F)F)cc1)c1ccc(OCF)c(OC2CCC2)c1 (stereo not given) | 0.45% |  |
| [O-][n+]1ccc(CC(c2ccc(C(O)(C(F)(F)F)C(F)(F)F)cc2)c2ccc(OC(F)F)c(OC(F)F)c2)cc1 (stereo not given) | < 0.05% |  |
| Cc1cncc(C)c1CC(c1ccc(C(O)(C(F)(F)F)C(F)(F)F)cc1)c1ccc(OCF)c(OC(F)F)c1 (stereo not given) | < 0.05% |  |

The remaining lines, values ahead:

| Covalent binding | Covalent binding (tested as the 3H-labelled form) | SMILES |
| --- | --- | --- |
|  | 3.1% | COc1ccc([C@H](Cc2ccncc2)c2ccc(C(O)(C(F)(F)F)C(F)(F)F)cc2)cc1OC1CCCC1 |
| 2.9% |  | COc1ccc(C(Cc2c(C)cncc2C)c2ccc(C(O)(C(F)(F)F)C(F)(F)F)cc2)cc1OC1CCCC1 (stereo not given) |

Reference: ChEMBL document CHEMBL1134861, “Improving metabolic stability of phosphodiesterase-4 inhibitors containing a substituted catechol: prevention of reactive intermediate formation and covalent binding” (Bioorg Med Chem Lett, 2002)
